Tested on: 186277-243-T-J2-PDC complex spheroid viability
Experiment: Anticancer human tumor 186277-243-T-J2-PDC patient-derived colon adenocarcinoma cell line growth inhibition [GQUAD]
Details: for IC50: curve of first compound; for viability, T/C: stronger effect = lower value
Summary of the method: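 Multi-cell-type spheroids of tumor cells with HUVEC and mesenchymal stem cells, treated with drug combinations. Concentrations descend in half-log steps from near clinical Cmax, or from 10 microM where Cmax is unknown; viability read-out.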

[1] = second compound 0.0316 µM, first compound 0.0316 µM
[2] = second compound 0.0316 µM, first compound 0.1 µM
[3] = second compound 0.0316 µM, first compound 0.316 µM
[4] = second compound 0.0316 µM, first compound 1 µM
[5] = second compound 0.0316 µM, first compound 3.16 µM
[6] = second compound 0.0316 µM, first compound 10 µM
[7] = second compound 0.1 µM, first compound 0.0316 µM
[8] = second compound 0.1 µM, first compound 0.1 µM
[9] = second compound 0.1 µM, first compound 0.316 µM
[10] = second compound 0.1 µM, first compound 1 µM
[11] = second compound 0.1 µM, first compound 3.16 µM
[12] = second compound 0.1 µM, first compound 10 µM
[13] = second compound 0.316 µM, first compound 0.0316 µM
[14] = second compound 0.316 µM, first compound 0.1 µM
[15] = second compound 0.316 µM, first compound 0.316 µM
[16] = second compound 0.316 µM, first compound 1 µM
[17] = second compound 0.316 µM, first compound 3.16 µM
[18] = second compound 0.316 µM, first compound 10 µM
[19] = second compound 1 µM, first compound 0.0316 µM
[20] = second compound 1 µM, first compound 0.1 µM
[21] = second compound 1 µM, first compound 0.316 µM
[22] = second compound 1 µM, first compound 1 µM
[23] = second compound 1 µM, first compound 3.16 µM
[24] = second compound 1 µM, first compound 10 µM
[25] = second compound 3.16 µM, first compound 0.0316 µM
[26] = second compound 3.16 µM, first compound 0.1 µM
[27] = second compound 3.16 µM, first compound 0.316 µM
[28] = second compound 3.16 µM, first compound 1 µM
[29] = second compound 3.16 µM, first compound 3.16 µM
[30] = second compound 3.16 µM, first compound 10 µM
[31] = second compound 10 µM, first compound 0.0316 µM
[32] = second compound 10 µM, first compound 0.1 µM
[33] = second compound 10 µM, first compound 0.316 µM
[34] = second compound 10 µM, first compound 1 µM
[35] = second compound 10 µM, first compound 3.16 µM
[36] = second compound 10 µM, first compound 10 µM
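Note: spheroids exposed to drugs for 7 days.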
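Throughout, for viability, T/C: 100% = DMSO vehicle control viability.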

Cc1cccc(N(C)C(=O)C2C(O)CCN2c2nc(C)cc(C(F)(F)F)c2C#N)c1 (stereo unspecified) + Cc1cnc(CNC(=O)c2c(=O)c3ccc(N4CCCN(C)CC4)nc3n3c2sc2ccccc23)cn1
IC50 (second compound 0.0316 µM): > 10 µM
IC50 (second compound 0.1 µM): > 10 µM
IC50 (second compound 0.316 µM): > 10 µM
IC50 (second compound 1 µM): > 10 µM
IC50 (second compound 3.16 µM): < 0.0316 µM
IC50 (second compound 10 µM): < 0.0316 µM
viability, T/C [1]: 107%
viability, T/C [2]: 110%
viability, T/C [3]: 109%
viability, T/C [4]: 100%
viability, T/C [5]: 102%
viability, T/C [6]: 117%
viability, T/C [7]: 92.8%
viability, T/C [8]: 93.3%
viability, T/C [9]: 97.4%
viability, T/C [10]: 105%
viability, T/C [11]: 94.8%
viability, T/C [12]: 78.8%
viability, T/C [13]: 73%
viability, T/C [14]: 84.1%
viability, T/C [15]: 75.1%
viability, T/C [16]: 71.7%
viability, T/C [17]: 76.6%
viability, T/C [18]: 88.5%
viability, T/C [19]: 51.6%
viability, T/C [20]: 70.4%
viability, T/C [21]: 68.6%
viability, T/C [22]: 59.5%
viability, T/C [23]: 64.9%
viability, T/C [24]: 65%
viability, T/C [25]: 42.2%
viability, T/C [26]: 52.2%
viability, T/C [27]: 47.9%
viability, T/C [28]: 47.1%
viability, T/C [29]: 52.9%
viability, T/C [30]: 51.9%
viability, T/C [31]: 45.3%
viability, T/C [32]: 45.9%
viability, T/C [33]: 38%
viability, T/C [34]: 41.6%
viability, T/C [35]: 53.1%
viability, T/C [36]: 51.4%

CC(C)n1c(=O)n(C)c2cnc3cc(F)c(-c4ccc(OCCCN5CCCCC5)nc4)cc3c21 + Cc1cnc(CNC(=O)c2c(=O)c3ccc(N4CCCN(C)CC4)nc3n3c2sc2ccccc23)cn1
IC50 (second compound 0.0316 µM): > 10 µM
IC50 (second compound 0.1 µM): > 10 µM
IC50 (second compound 0.316 µM): 3.6 µM
IC50 (second compound 1 µM): 0.144 µM
IC50 (second compound 3.16 µM): < 0.0316 µM
IC50 (second compound 10 µM): < 0.0316 µM
viability, T/C [1]: 90.6%
viability, T/C [2]: 79.9%
viability, T/C [3]: 73.5%
viability, T/C [4]: 69.3%
viability, T/C [5]: 75%
viability, T/C [6]: 76.2%
viability, T/C [7]: 70.4%
viability, T/C [8]: 54.4%
viability, T/C [9]: 70.6%
viability, T/C [10]: 73.1%
viability, T/C [11]: 59.4%
viability, T/C [12]: 46.5%
viability, T/C [13]: 67.8%
viability, T/C [14]: 67.6%
viability, T/C [15]: 48.8%
viability, T/C [16]: 70.8%
viability, T/C [17]: 46.5%
viability, T/C [18]: 41.2%
viability, T/C [19]: 49.2%
viability, T/C [20]: 46.3%
viability, T/C [21]: 52.2%
viability, T/C [22]: 54.8%
viability, T/C [23]: 52.3%
viability, T/C [24]: 42.5%
viability, T/C [25]: 43.7%
viability, T/C [26]: 39.8%
viability, T/C [27]: 49.5%
viability, T/C [28]: 39.7%
viability, T/C [29]: 40.6%
viability, T/C [30]: 36.4%
viability, T/C [31]: 31.8%
viability, T/C [32]: 47.5%
viability, T/C [33]: 40%
viability, T/C [34]: 39.7%
viability, T/C [35]: 38.3%
viability, T/C [36]: 35.6%

O=C(c1cc(Cc2n[nH]c(=O)c3ccccc23)ccc1F)N1CCN(C(=O)C2CC2)CC1 + Cc1cnc(CNC(=O)c2c(=O)c3ccc(N4CCCN(C)CC4)nc3n3c2sc2ccccc23)cn1
IC50 (second compound 0.0316 µM): > 10 µM
IC50 (second compound 0.1 µM): 5.01 µM
IC50 (second compound 0.316 µM): > 10 µM
IC50 (second compound 1 µM): < 0.0316 µM
IC50 (second compound 3.16 µM): < 0.0316 µM
IC50 (second compound 10 µM): < 0.0316 µM
viability, T/C [1]: 99.9%
viability, T/C [2]: 78.8%
viability, T/C [3]: 83.2%
viability, T/C [4]: 83.6%
viability, T/C [5]: 60.9%
viability, T/C [6]: 53%
viability, T/C [7]: 80.7%
viability, T/C [8]: 62.8%
viability, T/C [9]: 62.7%
viability, T/C [10]: 60.7%
viability, T/C [11]: 53%
viability, T/C [12]: 45.9%
viability, T/C [13]: 64.6%
viability, T/C [14]: 56.8%
viability, T/C [15]: 64.6%
viability, T/C [16]: 62.9%
viability, T/C [17]: 50.8%
viability, T/C [18]: 48.4%
viability, T/C [19]: 46.3%
viability, T/C [20]: 48.4%
viability, T/C [21]: 43.5%
viability, T/C [22]: 47.9%
viability, T/C [23]: 50%
viability, T/C [24]: 49%
viability, T/C [25]: 44.2%
viability, T/C [26]: 39.2%
viability, T/C [27]: 38.3%
viability, T/C [28]: 38.2%
viability, T/C [29]: 43.5%
viability, T/C [30]: 38.9%
viability, T/C [31]: 33.1%
viability, T/C [32]: 42.3%
viability, T/C [33]: 34.7%
viability, T/C [34]: 43.8%
viability, T/C [35]: 49.5%
viability, T/C [36]: 38.9%

From PubChem BioAssay AID2060512 (Molecular Pharmacology Branch, DTP, NCI, 2025)
